{"source": "patent US8785399B2", "about": "“Antibacterial peptides” (Spiderbiotech S.R.A., priority 2008, dated 2014)", "test_system": "fresh human erythrocytes", "assay_type": "cell-based", "procedure": "The haemolysis assay was adapted from the method of Shin et al. (Ref. 12). Fresh human erythrocytes were used to test the haemolytic activities of the peptides. Whole blood was collected in a sterile tube with a 4% w/v sodium citrate solution (in a 1:10 ratio sodium citrate:whole blood), put in ice and centrifuged at 1000 g for 5 minutes at 4° C.\nThe supernatant, including the leucocytes above the erythrocyte pellet, was removed carefully and discarded. Intact erytrocytes were washed three times with 2 volumes (1 mL) of prechilled pyrogen-free saline (PBS 1×). Erythrocyte suspensions were adjusted to 0.8% (8 ul in 1 mL or 160 uL in 20 mL) of PBS 1×. […]\nSubsequently, intact erythrocyte were pelletted by centrifugation at 1000 g for 5 minutes at 4° C. One hundred microliters of supernatant from each well was transferred accordingly to a new 96-well microtiter plate, and the amount of haemoglobin released into the supernatant was determined by reading the absorbance at 414 nm against a reference wavelength of 490 nm. […]\nThe haemolysis was determined by two different assays as described in Example VIII. In Tables 7-9 all haemolysis percentage values, determined by UV-VIS spectrophotometry, are reported. […]", "data": [{"substance": "Triton X 100", "values": [{"measurement": "Haemolysis, %", "value": 100.0, "unit": "%"}]}]}
